Values of other authors, collected in US8771972B2 (Saladax Biomedical Inc., priority 2011, dated 2014).

Conditions: background statement

Row | Compound | activity of metabolite
1 | C[N+]1([O-])CCN(C2=Nc3cc(Cl)ccc3Nc3ccccc32)CC1 [N-Oxide derivative, Clozapine-N-oxide] | inactive
2 | Clc1ccc2c(c1)N=C(N1CCNCC1)c1ccccc1N2 [N-desmethyl metabolite, N-desmethylclozapine] | limited activity
